Patent publication US10160724B2, “Tetrahydropyridine derivatives and their use as antibacterial agents” (Dong-A St Co., Ltd., priority 2016, dated 2018)
≈ marks a conversion by molar mass, not a printed value.

What was measured:
Assay in all cases: In vitro antibiotic activity, agar dilution method (Mueller-Hinton agar, NCCLS)
Assay type in all cases: cell-based
[1] = tested on: E. coli ATCC 25922; settings: Escherichia coli, ATCC25922; agar dilution, Mueller-Hinton agar; read-out: MIC for E. coli ATCC 25922
Method: (§1) To measure the antibiotic activity of the compounds prepared by Examples, antibiotic activity test in vitro was performed by agar dilution method using Mueller-Hinton agar according to the NCCLS (National Committee for Clinical Laboratory Standards. 2000. Methods for dilution antimicrobial susceptibility tests for bacteria that grow aerobiocally. Approved standard, NCCLS document M7-M5, 5th ed, vol 20, no 2. National Committee for Clinical Laboratory Standards, Wayne, Pa.). The test strain was Escherichia coli (ATCC 25922), Klebsiella pneumonia (ATCC 29665) and Pseudomonas aeriginosa (PAO1).

[2] = tested on: K. pneumoniae ATCC 29665; settings: Klebsiella pneumoniae, ATCC29665; agar dilution, Mueller-Hinton agar; read-out: MIC for K. pneumoniae ATCC 29665
Method: as §1

[3] = tested on: P. aeruginosa PAO1; settings: Pseudomonas aeruginosa, PAO1; agar dilution, Mueller-Hinton agar; read-out: MIC for P. aeruginosa PAO1
Method: as §1

Q: With `CC(CCN1CC=C(c2ccc(C#CCC3CCCCC3)cc2)CC1)(C(=O)NO)S(C)(=O)=O` (stereo not drawn) [Example 12, 4-(4-(4-(3-cyclohexylprop-1-yn-1-yl)phenyl)-3,6-dihydropyridin-1(2H)-yl)-N-hydroxy-2-methyl-2-(methylsulfonyl)butanamide] as the molecule, how does the MIC [1] read?
A: 8 to 16 µg/mL (≈ 16.9 to 33.9 µM)

Q: And the MIC [2]?
A: 8 to 16 µg/mL (≈ 16.9 to 33.9 µM)

Q: And the MIC [3]?
A: > 16 µg/mL

Q: With `CC(CCN1CC=C(c2ccc(C#CCOCCCO)cc2)CC1)(C(=O)NO)S(C)(=O)=O` (stereo not drawn) [Example 24, N-hydroxy-4-(4-(4-(3-(3-hydroxypropoxy)prop-1-yn-1-yl)phenyl)-3,6-dihydropyridin-1(2H)-yl)-2-methyl-2-(methylsulfonyl)butanamide] as the molecule, how does the MIC [1] read?
A: 1 to 8 µg/mL (≈ 2.15 to 17.2 µM)

Q: What about the MIC [2] of the same molecule?
A: 1 to 8 µg/mL (≈ 2.15 to 17.2 µM)

Q: And the MIC [3]?
A: 1 to 8 µg/mL (≈ 2.15 to 17.2 µM)

Q: How did the MIC [1] turn out when `CC(O)C#Cc1ccc(C2=CCN(CCC(C)(C(=O)NO)S(C)(=O)=O)CC2)cc1` (stereo not drawn) [Example 8, N-hydroxy-4-(4-(4-(3-hydroxybut-1-yn-1-yl)phenyl)-3,6-dihydropyridin-1(2H)-yl)-2-methyl-2-(methylsulfonyl)butanamide] was run?
A: > 16 µg/mL

Q: What about the MIC [2] of the same molecule?
A: > 16 µg/mL

Q: What about the MIC [3] of the same molecule?
A: > 16 µg/mL

Q: Which results are given for `CC(CCN1CC=C(c2ccc(C#CC#CCCCO)c(F)c2)CC1)(C(=O)NO)S(C)(=O)=O` (stereo not drawn) [Example 42, 4-(4-(3-fluoro-4-(7-hydroxyhepta-1,3-diyn-1-yl)phenyl)-3,6-dihydropyridin-1(2H)-yl)-N-hydroxy-2-methyl-2-(methylsulfonyl)butanamide]?
A: MIC [1]: < 1 µg/mL; MIC [2]: 1 to 8 µg/mL (≈ 2.1 to 16.8 µM); MIC [3]: 1 to 8 µg/mL (≈ 2.1 to 16.8 µM)

Q: Which MIC [1] does the source give for `CC(CCN1CC=C(c2ccc(-c3ccoc3)cc2)CC1)(C(=O)NO)S(C)(=O)=O` (stereo not drawn) [Example 63, 4-(4-(4-(furan-3-yl)phenyl)-3,6-dihydropyridin-1(2H)-yl)-N-hydroxy-2-methyl-2-(methylsulfonyl)butanamide] here?
A: < 1 µg/mL

Q: What about the MIC [2] of the same molecule?
A: < 1 µg/mL

Q: What about the MIC [3] of the same molecule?
A: 8 to 16 µg/mL (≈ 19.1 to 38.2 µM)

Q: `CC(CCN1CC=C(c2ccc(C#CCOC(N)=O)cc2)CC1)(C(=O)NO)S(C)(=O)=O` (stereo not drawn) [Example 26, 3-(4-(1-(4-(hydroxyamino)-3-methyl-3-(methylsulfonyl)-4-oxobutyl)-1,2,3,6-tetrahydropyridin-4-yl)phenyl)prop-2-yn-1-yl carbamate] was tested. Which MIC [1] did it give?
A: 1 to 8 µg/mL (≈ 2.22 to 17.8 µM)

Q: What about the MIC [2] of the same molecule?
A: 8 to 16 µg/mL (≈ 17.8 to 35.6 µM)

Q: And the MIC [3]?
A: 1 to 8 µg/mL (≈ 2.22 to 17.8 µM)

Q: `COc1ccsc1-c1ccc(C2=CCN(CCC(C)(C(=O)NO)S(C)(=O)=O)CC2)cc1.Cl` (stereo not drawn) [Example 71, N-hydroxy-4-(4-(4-(3-methoxythiophen-2-yl)phenyl)-3,6-dihydropyridin-1(2H)-yl)-2-methyl-2-(methylsulfonyl)butanamide hydrochloride] was tested. Which MIC [1] did it give?
A: < 1 µg/mL

Q: What about the MIC [2] of the same molecule?
A: < 1 µg/mL

Q: What about the MIC [3] of the same molecule?
A: > 16 µg/mL

Q: What does the source list for `CN(C)CCCC#Cc1ccc(C2=CCN(CCC(C)(C(=O)NO)S(C)(=O)=O)CC2)cc1` (stereo not drawn) [Example 20, 4-(4-(4-(5-(dimethylamino)pent-1-yn-1-yl)phenyl)-3,6-dihydropyridin-1(2H)-yl)-N-hydroxy-2-methyl-2-(methylsulfonyl)butanamide]?
A: MIC [1]: 1 to 8 µg/mL (≈ 2.17 to 17.3 µM); MIC [2]: 8 to 16 µg/mL (≈ 17.3 to 34.7 µM); MIC [3]: 8 to 16 µg/mL (≈ 17.3 to 34.7 µM)

Q: Which MIC [1] does the source give for `CC(CCN1CC=C(c2ccc(C#CCCCOC(N)=O)cc2)CC1)(C(=O)NO)S(C)(=O)=O` (stereo not drawn) [Example 27, 5-(4-(1-(4-(hydroxyamino)-3-methyl-3-(methylsulfonyl)-4-oxobutyl)-1,2,3,6-tetrahydropyridin-4-yl)phenyl)pent-4-yn-1-yl carbamate] here?
A: < 1 µg/mL

Q: What about the MIC [2] of the same molecule?
A: 1 to 8 µg/mL (≈ 2.09 to 16.8 µM)

Q: And the MIC [3]?
A: 1 to 8 µg/mL (≈ 2.09 to 16.8 µM)

Q: `COCCCC#Cc1ccc(C2=CCN(CCC(C)(C(=O)NO)S(C)(=O)=O)CC2)cc1` (stereo not drawn) [Example 28, N-hydroxy-4-(4-(4-(5-methoxypent-1-yn-1-yl)phenyl)-3,6-dihydropyridin-1(2H)-yl)-2-methyl-2-(methylsulfonyl)butanamide] was tested. Which MIC [1] did it give?
A: < 1 µg/mL

Q: And the MIC [2]?
A: < 1 µg/mL

Q: What about the MIC [3] of the same molecule?
A: 1 to 8 µg/mL (≈ 2.23 to 17.8 µM)

Q: For `CCN(CC)CC#Cc1ccc(C2=CCN(CCC(C)(C(=O)NO)S(C)(=O)=O)CC2)cc1` (stereo not drawn) [Example 16, 4-(4-(4-(3-(diethylamino)prop-1-yn-1-yl)phenyl)-3,6-dihydropyridin-1(2H)-yl)-N-hydroxy-2-methyl-2-(methylsulfonyl)butanamide], which MIC [1] is on record?
A: 1 to 8 µg/mL (≈ 2.17 to 17.3 µM)

Q: What about the MIC [2] of the same molecule?
A: 1 to 8 µg/mL (≈ 2.17 to 17.3 µM)

Q: And the MIC [3]?
A: 1 to 8 µg/mL (≈ 2.17 to 17.3 µM)

Q: What does the source list for `CC(CCN1CC=C(c2ccc(C#CCO)cc2)CC1)(C(=O)NO)S(C)(=O)=O` (stereo not drawn) [Example 22, N-hydroxy-4-(4-(4-(3-hydroxyprop-1-yn-1-yl)phenyl)-3,6-dihydropyridin-1(2H)-yl)-2-methyl-2-(methylsulfonyl)butanamide]?
A: MIC [1]: 1 to 8 µg/mL (≈ 2.46 to 19.7 µM); MIC [2]: > 16 µg/mL; MIC [3]: 1 to 8 µg/mL (≈ 2.46 to 19.7 µM)

Q: `CC(CCN1CC=C(c2ccc(-c3ccc(O)cc3)cc2)CC1)(C(=O)NO)S(C)(=O)=O` (stereo not drawn) [Example 59, N-hydroxy-4-(4-(4′-hydroxy-[1,1′-biphenyl]-4-yl)-3,6-dihydropyridin-1(2H)-yl)-2-methyl-2-(methylsulfonyl)butanamide] was tested. Which MIC [1] did it give?
A: < 1 µg/mL

Q: And the MIC [2]?
A: 8 to 16 µg/mL (≈ 18 to 36 µM)

Q: What about the MIC [3] of the same molecule?
A: 8 to 16 µg/mL (≈ 18 to 36 µM)

Q: With `CN(C)CC#Cc1ccc(C2=CCN(CCC(C)(C(=O)NO)S(C)(=O)=O)CC2)c(F)c1` (stereo not drawn) [Example 33, 4-(4-(4-(3-(dimethylamino)prop-1-yn-1-yl)-2-fluorophenyl)-3,6-dihydropyridin-1(2H)-yl)-N-hydroxy-2-methyl-2-(methylsulfonyl)butanamide] as the molecule, how does the MIC [1] read?
A: 1 to 8 µg/mL (≈ 2.21 to 17.7 µM)

Q: And the MIC [2]?
A: 8 to 16 µg/mL (≈ 17.7 to 35.4 µM)

Q: And the MIC [3]?
A: 1 to 8 µg/mL (≈ 2.21 to 17.7 µM)

Q: How did the MIC [1] turn out when `CC(CCN1CC=C(c2ccc(C#CCCCCN3CCOCC3)cc2)CC1)(C(=O)NO)S(C)(=O)=O` (stereo not drawn) [Example 30, N-hydroxy-2-methyl-2-(methylsulfonyl)-4-(4-(4-(6-morpholinohex-1-yn-1-yl)phenyl)-3,6-dihydropyridin-1(2H)-yl)butanamide] was run?
A: < 1 µg/mL

Q: What about the MIC [2] of the same molecule?
A: 1 to 8 µg/mL (≈ 1.93 to 15.5 µM)

Q: And the MIC [3]?
A: 1 to 8 µg/mL (≈ 1.93 to 15.5 µM)

Q: Which MIC [1] does the source give for `CC(CCN1CC=C(c2ccc(-c3ccncc3)cc2)CC1)(C(=O)NO)S(C)(=O)=O` (stereo not drawn) [Example 55, N-hydroxy-2-methyl-2-(methylsulfonyl)-4-(4-(4-(pyridin-4-yl)phenyl)-3,6-dihydropyridin-1(2H)-yl)butanamide] here?
A: 1 to 8 µg/mL (≈ 2.33 to 18.6 µM)

Q: What about the MIC [2] of the same molecule?
A: 1 to 8 µg/mL (≈ 2.33 to 18.6 µM)

Q: And the MIC [3]?
A: 1 to 8 µg/mL (≈ 2.33 to 18.6 µM)

Q: How did the MIC [1] turn out when `CN(C)CC#CC#Cc1ccc(C2=CCN(CCC(C)(C(=O)NO)S(C)(=O)=O)CC2)cc1` (stereo not drawn) [Example 49, 4-(4-(4-(5-(dimethylamino)penta-1,3-diyn-1-yl)phenyl)-3,6-dihydropyridin-1(2H)-yl)-N-hydroxy-2-methyl-2-(methylsulfonyl)butanamide] was run?
A: < 1 µg/mL

Q: What about the MIC [2] of the same molecule?
A: 1 to 8 µg/mL (≈ 2.19 to 17.5 µM)

Q: And the MIC [3]?
A: < 1 µg/mL

Q: With `CC(CCN1CC=C(c2ccc(C#CC3CN(S(C)(=O)=O)C3)cc2)CC1)(C(=O)NO)S(C)(=O)=O` (stereo not drawn) [Example 41, N-hydroxy-2-methyl-2-(methylsulfonyl)-4-(4-(4-((1-(methylsulfonyl)azetidin-3-yl)ethynyl)phenyl)-3,6-dihydropyridin-1(2H)-yl)butanamide] as the molecule, how does the MIC [1] read?
A: 1 to 8 µg/mL (≈ 1.96 to 15.7 µM)

Q: And the MIC [2]?
A: 8 to 16 µg/mL (≈ 15.7 to 31.4 µM)

Q: What about the MIC [3] of the same molecule?
A: 8 to 16 µg/mL (≈ 15.7 to 31.4 µM)

Q: How did the MIC [1] turn out when `CC(CCN1CC=C(c2ccc(C#CCCCOS(C)(=O)=O)cc2)CC1)(C(=O)NO)S(C)(=O)=O` (stereo not drawn) [Example 19, 5-(4-(1-(4-(hydroxyamino)-3-methyl-3-(methylsulfonyl)-4-oxobutyl)-1,2,3,6-tetrahydropyridin-4-yl)phenyl)pent-4-yn-1-yl methanesulfonate] was run?
A: < 1 µg/mL

Q: What about the MIC [2] of the same molecule?
A: 1 to 8 µg/mL

Q: What about the MIC [3] of the same molecule?
A: 1 to 8 µg/mL

Q: Which results are given for `CC(CCN1CC=C(c2ccc(C#CC#Cc3ccccc3)cc2)CC1)(C(=O)NO)S(C)(=O)=O` (stereo not drawn) [Example 51, N-hydroxy-2-methyl-2-(methylsulfonyl)-4-(4-(4-(phenylbuta-1,3-diyn-1-yl)phenyl)-3,6-dihydropyridin-1(2H)-yl)butanamide]?
A: MIC [1]: > 16 µg/mL; MIC [2]: > 16 µg/mL; MIC [3]: > 16 µg/mL
